The source of these data is patent US11312723B2, “Pyranopyrazole and pyrazolopyridine immunomodulators for treatment of autoimmune diseases” (The Rockefeller University, priority 2017, dated 2022).

Experiment [1] deals with Human alpha-thrombin (Homo sapiens (Human), UniProt P00734). As to the kind of experiment: Thrombin counterscreen for selectivity, fluorogenic substrate cleavage. Format: biochemical. The settings on record: 10 min pre-incubation, Boc-Val-Pro-Arg-AMC 20 μM. How it is done:
Counterscreens for Selectivity:
Thrombin. In a 96-well white opaque plate, 80 μl of assay buffer was added to each well. Test compounds were added, and serially diluted as above, to generate a concentration range of approximately 1-100 μM. Human alpha-thrombin (Enzyme Research Labs) was diluted in assay buffer to a final concentration of 12.5 nM. 80 μl of this enzyme solution was added to the assay wells. The enzyme/compound mixtures were incubated for 10 minutes at room temperature. Fluorogenic substrate (Boc-Val-Pro-Arg-7-amido-4-methylcoumarin; Sigma) was added to assay wells at a final concentration of 20 μM. The assay plate was spun for 1 minute at 1500 g and then read at 37° C. in a SpectraMax M2 plate reader (λex=380 nm and λem=460 nm). Activity was quantified as the rate of change in fluorescence, which corresponds to the rate of substrate cleavage. IC50 values were determined as the concentration of inhibitor that produced 50% of the rate of change of control wells without any inhibitor. For compounds with activity <1 μM, the assay was repeated with a lower concentration range, typically from 10-1000 nM.
(The purpose of a counterscreen is to sort out artefacts and off-target activity.)

The target of experiment [2] is Human FXIIa (Homo sapiens (Human), UniProt P00748). As to the kind of experiment: Factor XIIa (FXIIa) inhibitory activity, chromogenic substrate (Pefachrome XIIa) cleavage. The format is biochemical. The settings on record: 10 min pre-incubation, Pefachrome XIIa 400 μM.
Human FXIIa, sequence (P00748 373-615): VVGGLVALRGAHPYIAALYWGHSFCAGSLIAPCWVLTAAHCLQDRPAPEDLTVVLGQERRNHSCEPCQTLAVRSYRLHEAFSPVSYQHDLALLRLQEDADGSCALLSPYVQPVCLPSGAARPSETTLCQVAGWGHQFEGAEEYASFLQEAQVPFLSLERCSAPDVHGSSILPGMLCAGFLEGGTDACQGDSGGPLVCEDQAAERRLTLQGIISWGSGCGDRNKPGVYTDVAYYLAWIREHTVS
Human FXIIa, sequence (P00748 20-372 partner): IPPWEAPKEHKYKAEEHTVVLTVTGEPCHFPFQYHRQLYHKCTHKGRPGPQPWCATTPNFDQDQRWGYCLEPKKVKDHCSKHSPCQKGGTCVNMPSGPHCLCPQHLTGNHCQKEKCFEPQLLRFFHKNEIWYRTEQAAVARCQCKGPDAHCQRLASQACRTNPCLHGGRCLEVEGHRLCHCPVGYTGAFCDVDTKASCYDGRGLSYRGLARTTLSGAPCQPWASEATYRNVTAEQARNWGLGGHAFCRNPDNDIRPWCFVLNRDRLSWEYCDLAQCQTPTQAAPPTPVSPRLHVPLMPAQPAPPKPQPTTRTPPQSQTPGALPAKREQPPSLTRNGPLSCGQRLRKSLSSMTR

Turning to `CCc1cc(C)c2c(c1)C(C(=O)n1nc3c(c1N)CCN(S(C)(=O)=O)C3)CCN2` (single isomer, unassigned) [Example 69, (3-amino-6-(methylsulfonyl)-4,5,6,7-tetrahydropyrazolo[3,4-c]pyridin-2-yl)((S*)-6-ethyl-8-methyl-1,2,3,4-tetrahydroquinolin-4-yl)methanone], the values for the IC50 in experiment [1] and in experiment [2] were 40000 nM and 10 nM, respectively.
For the compound `Cc1cc(F)cc2c1NCCC2C(=O)n1nc2c(c1N)CCOC2` (single isomer, unassigned) [Example 76, (S*)-(3-amino-4,5-dihydropyrano[3,4-c]pyrazol-2(7H)-yl)(6-fluoro-8-methyl-1,2,3,4-tetrahydroquinolin-4-yl)methanone], the IC50 in experiment [1] is > 100000 nM; in experiment [2], 50 nM.
In the same order, the values of `CS(=O)(=O)N1CCc2c(nn(C(=O)[C@H]3CCCc4[nH]c(Cl)cc43)c2N)C1` (single isomer, unassigned) [Example 131, (S*)-(3-amino-6-(methylsulfonyl)-4,5,6,7-tetrahydro-pyrazolo[3,4-c]pyridin-2-yl)(2-chloro-4,5,6,7-tetrahydro-1H-indol-4-yl)methanone] are 1500 nM and 30 nM.
The matching figures for `CS(=O)(=O)N1CCc2c(nn(C(=O)[C@H]3CCNc4ccccc43)c2N)C1` (single isomer, unassigned) [Example 135, (S*)-(3-amino-6-(methylsulfonyl)-4,5,6,7-tetrahydro-pyrazolo[3,4-c]pyridin-2-yl)(1,2,3,4-tetrahydro-quinolin-4-yl)methanone]: 28000 nM and 80 nM.
In the same order, the values of `Nc1c2c(nn1C(=O)[C@H]1CCNc3ccc(F)cc31)CNCC2` (single isomer, unassigned) [Example 146, (S*)-(3-amino-4,5,6,7-tetrahydro-pyrazolo[3,4-c]pyridin-2-yl)(6-fluoro-1,2,3,4-tetrahydro-quinolin-4-yl)methanone] are > 90000 nM and 70 nM.
Regarding `CCN1CCc2c(nn(C(=O)[C@H]3CCNc4ccc(F)cc43)c2N)C1` (single isomer, unassigned) [Example 165, (S*)-(3-amino-6-ethyl-4,5,6,7-tetrahydro-pyrazolo[3,4-c]pyridin-2-yl)(6-fluoro-1,2,3,4-tetrahydro-quinolin-4-yl)methanone], the IC50 in experiment [1] was > 75000 nM; in experiment [2] it was 30 nM.
In the same order, the values of `CCN1CCc2c(nn(C(=O)[C@H]3CCNc4c(C)cc(F)cc43)c2N)C1` (single isomer, unassigned) [Example 170, (S*)-(3-amino-6-ethyl-4,5,6,7-tetrahydro-pyrazolo[3,4-c]pyridin-2-yl)(6-fluoro-8-methyl-1,2,3,4-tetrahydro-quinolin-4-yl)methanone] are > 90000 nM and 10 nM.
In the same order, the values of `CCN1CCc2c(nn(C(=O)[C@H]3CCNc4c(C)cccc43)c2N)C1` (single isomer, unassigned) [Example 173, (S*)-(3-amino-6-ethyl-4,5,6,7-tetrahydro-pyrazolo[3,4-c]pyridin-2-yl)(8-methyl-1,2,3,4-tetrahydroquinolin-4-yl)methanone] are > 100000 nM and 20 nM.
Turning to `Cc1cccc2c1NCC[C@@H]2C(=O)n1nc2c(c1N)CCNC2` (single isomer, unassigned) [Example 176, (S*)-(3-amino-4,5,6,7-tetrahydro-pyrazolo[3,4-c]pyridin-2-yl)(8-methyl-1,2,3,4-tetrahydro-quinolin-4-yl)methanone], the IC50 in experiment [1] was > 90000 nM; in experiment [2], 100 nM.
For the compound `Nc1c2c(nn1C(=O)[C@H]1CCNc3ccc(F)cc31)COCC2` (single isomer, unassigned) [Example 196, (S*)-(3-amino-4,5-dihydropyrano[3,4-c]pyrazol-2(7H)-yl)(6-fluoro-1,2,3,4-tetrahydro-quinolin-4-yl)methanone], the IC50 was 95000 nM in experiment [1] and 80 nM in experiment [2].
The matching figures for `Cc1cccc2c1NCC[C@@H]2C(=O)n1nc2c(c1N)CCOC2` (single isomer, unassigned) [Example 198, (S*)-(3-amino-4,5-dihydropyrano[3,4-c]pyrazol-2(7H)-yl)(8-methyl-1,2,3,4-tetrahydro-quinolin-4-yl)methanone]: > 150000 nM and 90 nM.
The matching figures for `CN1CCc2nn(C(=O)C3CCCc4[nH]c(Cl)cc43)c(N)c2C1` (centres unmarked) [Example 3, (3-amino-5-methyl-4,5,6,7-tetrahydropyrazolo[4,3-c]pyridin-2-yl)(2-chloro-4,5,6,7-tetrahydro-1H-indol-4-yl)methanone]: > 35000 nM and 350 nM.
On to `CCc1cc2c([nH]1)CCCC2C(=O)n1nc2c(c1N)CN(C(=O)OCc1ccccc1)CC2` (centres unmarked) [Example 4, Benzyl 3-amino-2-(2-ethyl-4,5,6,7-tetrahydro-1H-indole-4-carbonyl)-6,7-dihydro-2H-pyrazolo[4,3-c]pyridine-5(4H)-carboxylate], for which the half-inhibitory concentration (IC50) in experiment [1] was > 25000 nM; in experiment [2], 300 nM.
As for `CCc1cc2c([nH]1)CCCC2C(=O)n1nc2c(c1N)CNCC2` (centres unmarked) [Example 6, (3-amino-4,5,6,7-tetrahydropyrazolo[4,3-c]pyridin-2-yl)(2-ethyl-4,5,6,7-tetrahydro-1H-indol-4-yl)methanone], the IC50 in experiment [1] is > 50000 nM; in experiment [2], 250 nM.
For the compound `Cc1cc2c(C(=O)n3nc4c(c3N)CCN(C(=O)OC(C)(C)C)C4)cccc2[nH]1` [Example 7, Tert-butyl 3-amino-2-(2-methyl-1H-indole-4-carbonyl)-4,5-dihydro-2H-pyrazolo[3,4-c]pyridine-6(7H)-carboxylate], the IC50 in experiment [1] is > 25000 nM; in experiment [2], 70 nM.
As for `Cc1ccc2c(c1)C(C(=O)n1nc3c(c1N)CCN(S(C)(=O)=O)C3)CCN2` (centres unmarked) [Example 12, (3-amino-6-(methylsulfonyl)-4,5,6,7-tetrahydropyrazolo[3,4-c]pyridin-2-yl)(6-methyl-1,2,3,4-tetrahydroquinolin-4-yl)methanone], the IC50 in experiment [1] is > 55000 nM; in experiment [2] it was 300 nM.
In the same order, the values of `CS(=O)(=O)N1CCc2c(nn(C(=O)C3CCNc4ccc(Cl)cc43)c2N)C1` (centres unmarked) [Example 14, (3-amino-6-(methylsulfonyl)-4,5,6,7-tetrahydropyrazolo[3,4-c]pyridin-2-yl)(6-chloro-1,2,3,4-tetrahydroquinolin-4-yl)methanone] are 20000 nM and 40 nM.
The matching figures for `CS(=O)(=O)N1CCc2c(N)nn(C(=O)C3CCNc4ccc(Cl)cc43)c2C1` (centres unmarked) [Example 15, (3-amino-6-(methylsulfonyl)-4,5,6,7-tetrahydropyrazolo[3,4-c]pyridin-1-yl)(6-chloro-1,2,3,4-tetrahydroquinolin-4-yl)methanone]: > 70000 nM and > 65000 nM.
As for `CCN1CCc2c(nn(C(=O)C3CCNc4ccccc43)c2N)C1` (centres unmarked) [Example 20, (3-amino-6-ethyl-4,5,6,7-tetrahydropyrazolo[3,4-c]pyridin-2-yl)(1,2,3,4-tetrahydroquinolin-4-yl)methanone], the IC50 is > 40000 nM in experiment [1] and 150 nM in experiment [2].
On to `CCN1CCc2c(N)nn(C(=O)C3CCNc4ccccc43)c2C1` (centres unmarked) [Example 21, (3-amino-6-ethyl-4,5,6,7-tetrahydropyrazolo[3,4-c]pyridin-1-yl)(1,2,3,4-tetrahydroquinolin-4-yl)methanone], for which the figures for the IC50 in experiment [1] and in experiment [2] were > 50000 nM and 1500 nM, respectively.
As to `CS(=O)(=O)N1CCc2c(nn(C(=O)C3CCNc4ccc(C(F)(F)F)cc43)c2N)C1` (centres unmarked) [Example 24, (3-amino-6-(methylsulfonyl)-4,5,6,7-tetrahydropyrazolo[3,4-c]pyridin-2-yl)(6-(trifluoromethyl)-1,2,3,4-tetrahydroquinolin-4-yl)methanone], the IC50 was 25000 nM in experiment [1] and 100 nM in experiment [2].
The matching figures for `CS(=O)(=O)N1CCc2c(N)nn(C(=O)C3CCNc4ccc(C(F)(F)F)cc43)c2C1` (centres unmarked) [Example 25, (3-amino-6-(methylsulfonyl)-4,5,6,7-tetrahydropyrazolo[3,4-c]pyridin-1-yl)(6-(trifluoromethyl)-1,2,3,4-tetrahydroquinolin-4-yl)methanone]: > 70000 nM and 40000 nM.
In the same order, the values of `Cn1cc2c(c1)C(C(=O)n1nc3c(c1N)CCN(S(C)(=O)=O)C3)CCC2` (centres unmarked) [Example 26, (3-amino-6-(methylsulfonyl)-4,5,6,7-tetrahydropyrazolo[3,4-c]pyridin-2-yl)(2-methyl-4,5,6,7-tetrahydro-2H-isoindol-4-yl)methanone] are 4500 nM and 150 nM.
For the compound `Nc1c2c(nn1C(=O)C1CCNc3ccc(F)cc31)CN(c1ccccc1)CC2` (centres unmarked) [Example 28, (3-amino-6-phenyl-4,5,6,7-tetrahydropyrazolo[3,4-c]pyridin-2-yl)(6-fluoro-1,2,3,4-tetrahydroquinolin-4-yl)methanone], the 50% inhibitory concentration (IC50) was > 35000 nM in experiment [1] and 160 nM in experiment [2].
On to `CCc1ccc2c(c1)C(C(=O)n1nc3c(c1N)CCN(S(C)(=O)=O)C3)CCN2` (centres unmarked) [Example 30, (3-amino-6-(methylsulfonyl)-4,5,6,7-tetrahydropyrazolo[3,4-c]pyridin-2-yl)(6-ethyl-1,2,3,4-tetrahydroquinolin-4-yl)methanone], for which the IC50 in experiment [1] amounted to 22000 nM; in experiment [2] it was 50 nM.

The term IC50 denotes the concentration that gives 50% inhibition.
